Where a name gives a salt, the structure may show the parent alone.
Target: T1, LHRH rat pituitary receptor (Rattus norvegicus, UniProt P30969)
T1 construct: from tissue; host or cells: rat pituitary
T1 sequence (P30969 1-327): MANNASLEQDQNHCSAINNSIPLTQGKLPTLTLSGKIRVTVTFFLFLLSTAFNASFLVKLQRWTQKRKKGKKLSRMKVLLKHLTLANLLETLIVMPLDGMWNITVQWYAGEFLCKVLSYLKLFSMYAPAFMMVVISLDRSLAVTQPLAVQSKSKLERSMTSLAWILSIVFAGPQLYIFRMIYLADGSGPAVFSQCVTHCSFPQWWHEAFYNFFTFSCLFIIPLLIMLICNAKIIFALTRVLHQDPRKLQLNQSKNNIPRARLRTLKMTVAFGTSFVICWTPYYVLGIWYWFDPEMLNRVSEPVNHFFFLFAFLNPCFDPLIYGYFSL
Assay: LHRH rat pituitary receptor binding
Protocol: Representative compounds of the present invention were evaluated in vitro for potency against for LHRH rat pituitary receptor binding [pK, ]. Methods for the assay procedures are 10 described in […] al. J Med. Chem., 32: 2340-2344 (1989). Values of pK, are the negative logarithms of the equilibrium dissociation constant of the particular antagonist test compound for the receptor binding. […] Leuprolide LHRH agonist, disclosed and claimed in U.S. Pat. No. 4,005, 063, has the structure 5-oxo-[…].

[1] = Table 1: compounds of formula (V), by n and R1
[2] = Table 2: compounds of formula (VI), by isoquinolinyl moiety R

Ki [2] [nM] | Ki [1] [nM] | Compound | further results
– | – | COc1cc2c(cc1OC)C(CC#N)N(CCCC(CCCNC(=O)CCc1ccc(F)cc1)(c1ccccc1)c1ccccc1)CC2 (stereo not shown) [Example 11, 7-[N-3-(4-Fluorophenyl)propionyl]amino-1-[N-(1,2,3,4-tetrahydro-1-cyanomethyl-6,7-dimethoxyisoguinolinyl)1-4.4-diphenylheptane hydrochloride] | pKI [1]: 8.71
3.72 | – | COc1cc2c(cc1Br)C(C)N(CCCC(CCCNC(=O)CCc1ccc(F)cc1)(c1ccccc1)c1ccccc1)CC2 (stereo not shown) [Example 61, 7-[N-3-(4-Fluorophenyl)propionyl]-1-[N-(1,2,3,4-tetrahydro-1-methyl-6-methoxy-7-bromoisoguinolinyl)1-4.4-diphenylheptane hydrochloride] | –
– | 1.58 | CCC1c2cc(OC)c(OC)cc2CCN1CCCC(CCCNC(=O)CCc1ccc(F)cc1)(c1ccccc1)c1ccccc1 (stereo not shown) [Example 5, 7-[N-3-(4-Fluorophenyl)Propionyl]amino-1-[N-(1,2,3,4-tetrahydro-1-ethyl-6.7-dimethoxyisoquinolinyl)]1-4.4-diphenylheptane hydrochloride] | –
– | 0.186 | COc1cc2c(cc1OC)C(CCCCN)N(CCCC(CCCNC(=O)CCc1ccc(F)cc1)(c1ccccc1)c1ccccc1)CC2 (stereo not shown) [Example 25, 7-[N-3-(4-Fluorophenyl)propional]-1-[N-(1,2,3,4-tetrahydro-1-(4-aminobutyl)-6,7-dimethoxyisoquinolinyl)]-4,4-diphenylhentane dihydrochloride] | –
– | – | COc1cc2c(cc1OC)C(CCCCNCC1CC1)N(CCCC(CCCNC(=O)CCc1ccc(F)cc1)(c1ccccc1)c1ccccc1)CC2 (stereo not shown) [Example 27] | pKI [1]: 10.0
– | – | CC1c2cc3c(cc2CCN1CCCC(CCCNC(=O)CCc1ccc(F)cc1)(c1ccccc1)c1ccccc1)OCCO3 (stereo not shown) [Example 49, 7-[N-3-(4-Fluorophenyl)propionyl]amino-1-[N-(1,2,3,4-tetrahydro-1-methyl-6,7-dioxane-isoguinolinyl)1-4.4-diphenylheotane hydrochloride] | pKI [2]: 7.90
– | 3.98 | COc1cc2c(cc1OC)C(CCCCNC(C)c1ccccc1)N(CCCC(CCCNC(=O)CCc1ccc(F)cc1)(c1ccccc1)c1ccccc1)CC2 (stereo not drawn) [Example 31, 7-[N-3-(4-Fluorophenyl)prol)ionyl]amino-1-[N-(1,2,3,4-tetrahydro-1-(4-(N-alpha-methylbenzylamino)butyl-6,7-dimethoxyisoguinolinyl)]-4,4-diphenylheptane dihydrochloride] | –
– | 1.58 | COc1cc2c(cc1OC)C([C@H]1CC[C@H](CNC(C)C)CC1)N(CCCC(CCCNC(=O)CCc1ccc(F)cc1)(c1ccccc1)c1ccccc1)CC2 (stereo partly shown) [Example 38, 7-[N-3-(4-Fluorophenyl)propionyl]-1-[N-(1,2,3,4-tetrahydro-1-(4-N-(isopropylaminomethyl)cyclohexyl-6,7-dimethoxyisoquinolinyl)1-4.4-diphenylheptanedihydrochloride] | –
3.55 | – | CC1c2cc(Cl)ccc2CCN1CCCC(CCCNC(=O)CCc1ccc(F)cc1)(c1ccccc1)c1ccccc1 (stereo not shown) [Example 52, 7-[N-3-(4-Fluorophenyl)propionyl]-1-[N-(1,2,3,4-tetrahydro-1-methyl-7-chloro-isoguinolinyl)-4,4-dithenylhepMtane hydrochloride] | –
10 | – | CC1c2cc3c(cc2CCN1CCCC(CCCNC(=O)CCc1ccc(F)cc1)(c1ccccc1)c1ccccc1)OCO3 (stereo not shown) [Example 48, 7-[N-3-(4-Fluorophenyl)propionyl]-1-[N-(1,2,3,4-tetrahydro-1-methyl-6,7-dioxalane-isoquinolinyl)1-4,4-diphenylheptane hydrochloride] | –
– | – | COc1cc2c(cc1OC)C(CNC(C)C)N(CCCC(CCCNC(=O)CCc1ccc(F)cc1)(c1ccccc1)c1ccccc1)CC2 (stereo not shown) [Example 23, 7-[N-3-(4-Fluorophenyl)propionyll-1-[N-(1,2,3,4-tetrahydro-1-(N-isopropylaminomethyl)-6,7-dimethoxyisoguinolinyl)]-4,4-diphenylheptanedihydrochloride] | pKI [1]: 8.91
– | 35.5 | COc1cc2c(cc1OC)C(C)N(CCCCC(CCCNC(=O)CCc1ccc(F)cc1)(c1ccccc1)c1ccccc1)CC2 (stereo not shown) [Example 45] | –
4.37 | – | CC1c2cc([N+](=O)[O-])ccc2CCN1CCCC(CCCNC(=O)CCc1ccc(F)cc1)(c1ccccc1)c1ccccc1 (stereo not drawn) [Example 54, 7-[N-3-(4-Fluorophenyl)Propionyl]-1-[N-(1,2,3,4-tetrahydro-1-methyl-7-nitro-isoquinolinyl)l-4,4-diphenylheiptane hydrochloride] | –
– | – | COc1cc2c(cc1OC)[C@@H](C)N(CCCC(CCCNC(=O)CCc1ccc(F)cc1)(c1ccccc1)c1ccccc1)CC2 [Example 2, (R) 7-[N-3-(4-Fluorophenyl)propionyl]-1-N-(1,2,3,4)-tetrahydro-1-methyl-6,7-dimethoxyisoguinolinyl)1-4,4-diohenylheptane hydrochloride] | pKI [1]: 8.25
– | 2.34 | COc1cc2c(cc1OC)C(CCCCNC(C)=O)N(CCCC(CCCNC(=O)CCc1ccc(F)cc1)(c1ccccc1)c1ccccc1)CC2 (stereo not shown) [Example 34, 7-[N-3-(4-FluoroTphenyl)propionyll-1-[N-(1,2,3,4-tetrahydro-1-(4-N-acetylamino)butyl)-6,7-dimethoxyisoguinolinyl)1-4,4-diphenylheptane hydrochloride] | –
2.51 | – | COc1cc2c(cc1OC)C(C)(C)N(CCCC(CCCNC(=O)CCc1ccc(F)cc1)(c1ccccc1)c1ccccc1)CC2 [Example 67, 7-[N-3-(4-Fluorophenyl)propionyl]-1-[N-(1,2,3,4-tetrahydro-1.1-dimethyl-6,7-dimethoxyisoguinolinyl)1-4.4-diphenylheptane hydrochloride] | –

Reference: patent US5981521A, “Tetrahydroisoquinoline derivatives as LHRH antagonists” (Abbott Laboratories, priority 1998, dated 1999)
